Tests used:
[1] = test system: SIRT3; assay: qRT-PCR of Tnf, Il6 and Cxcl2 in Mabc-R-infected BMDMs with 3-TYP; type: cell-based, mouse; conditions: 3-TYP 50 μM pretreatment, Mabc-R MOI=3, 3 hours (FIG. 3B)
Description: (§1) BMDMs of B and PMs of C were prepared from SIRT3 WT and KO mice, and were infected with Mabc-R (MOI=3) in the presence or absence of 3-TYP (50 μM) for 3 hours. Quantitative real-time PCR analysis for Tnf, Il6, and Cxcl2 was performed. […] (Scale bar, 50 μm. *P<0.05, **P<0.01, ***P<0.001. UI, uninfected. One-way ANOVA (A to D). Data is representative of three independent experiments (D left), and values represent means (±SEM) from three or four independent experiments performed in triplicate (A to C, D right))
(§2) Primary mouse bone marrow-derived macrophages (BMDMs) were isolated and cultured as previously described. BMDMs were isolated and differentiated after culture for 4 to 5 days in medium containing 25 ng/mL macrophage colony-stimulating factor (R&D Systems, Minneapolis, MIN, USA). Peritoneal macrophages (PMs) were isolated 2 to 3 days after injection with 1 mL of PBS supplemented with 3% thioglycollate (Sigma-Aldrich, St. Louis, MO, USA). Prior to isolation, PMs in the mouse abdominal cavity were collected with pre-chilled PBS supplemented with 10% FBS. […]
(§3) RNA extraction and qPCR were performed as described in Reference. […] To analyze qPCR data, relative quantification was performed using the 2^ΔΔCt method using Gapdh as an internal control gene. Data was expressed as a relative fold change. […]

[2] = test system: SIRT3; assay: qRT-PCR of Tnf, Il6 and Cxcl2 in Mabc-R-infected PMs with 3-TYP; type: cell-based, mouse; conditions: 3-TYP 50 μM pretreatment, Mabc-R MOI=3, 3 hours (FIG. 3C)
Description: as §1, §2, §3

[3] = test system: mitochondrial ROS; assay: MitoSOX Red staining of mitochondrial ROS in Mabc-R-infected BMDMs; type: cell-based, mouse; conditions: WT BMDMs, Mabc-R MOI=5, 2 hours, 20 μM, MitoSOX Red (FIG. 5A)
Description: (§4) Scale bar, 50 μm. (B to E) WT mice (n=5 each group) were left uninfected or infected intranasally with Mabc-R (1×10^7 CFU), prior to treatment with or without the compound represented by Chemical Formula 1 (30 mg/kg) and monitored at 10 days post-infection. […] The ratio of damaged mitochondria among total mitochondria was calculated quantitatively (scale bars, 200 nm). […] (*P<0.05, **P<0.01, ***P<0.001, n.s., not significant. One-way ANOVA (right) or non-parametric test (B, C, D right and E)). (Data represents three independent experiments (A left and D), and values represent means (±SEM) from three or four independent experiments performed in triplicate (A right, B, C, and E))
Mitochondrial ROS were measured as described previously in Reference. […] After 20 minutes, the cells were washed and measured using an immunofluorescence assay. […] The mean fluorescence intensity (MFI) level of mitochondrial ROS was calculated for each sample. Each experiment was performed in triplicate, and at least 200 cells per well were counted.
The mitochondrial ROS scavenger MIT-001 (previously, NecroX-7) removes mitochondrial ROS, calcium, and reactive nitrogen species (References [32 and 33]). […] The present inventors next determined whether inhibition of mitochondrial ROS generation enhanced antimicrobial effects in vivo. […]

[4] = test system: Sirt3 mRNA; assay: qRT-PCR analysis for Sirt3 mRNA expression in lungs of Mabc-R-infected mice; type: in vivo, mouse; conditions: 30 mg/kg, 10 dpi (FIG. 5E)
Description: as §4
(§5) RNA extraction and qPCR were performed as described in Reference. Briefly, total RNA from BMDMs or lung tissues was isolated using the TRIzol reagent (Thermo Fisher Scientific). cDNA synthesis was performed using Superscript II reverse transcriptase (Invitrogen, 18064). qPCR was performed using cDNA, primers, and SYBR Green PCR Kits (Qiagen, 204074) using a Real-time PCR Cycler Rotor-Gene Q 2plex system (Qiagen GmbH, 9001620, Hilden, Germany). The samples were amplified for 50 cycles as follows: 95° C. for 5 seconds and 60° C. for 10 seconds. To analyze qPCR data, relative quantification was performed using the 2^ΔΔCt method using Gapdh as an internal control gene. Data was expressed as a relative fold change. […]

[5] = test system: mitochondria in alveolar cells of lung tissues; assay: TEM analysis of damaged mitochondria in lung tissues of Mabc-R-infected mice; type: in vivo, mouse; conditions: Mabc-R-infected mice vs vehicle control mice, 30 mg/kg, 10 dpi, TEM (FIG. 5D)
Description: as §4
SIRT3 WT and KO mouse lung tissues were fixed with 2.5% glutaraldehyde in a 0.1 M cacodylate buffer (pH 7.2) containing 0.1% CaCl2). After 3 hours, the cells were post-fixed with 1% OsO4 in a 0.1 M sodium cacodylate buffer containing 0.1% CaCl2) for 2 hours. The tissues were rinsed with cold distilled water and slowly dehydrated using an ethanol series and propylene oxide at 4° C. The tissues were embedded in Embed-812 and cured at 60° C. for 30 hours. Ultrathin sections (70 nm) were cut with a diamond knife and an ULTRACUT UC7 ultramicrotome (Leica) and mounted on formvar-coated copper grids. Sections were stained with 4% uranyl acetate for 7 minutes and lead citrate for 7 minutes. […]

[6] = test system: Mabc-R; assay: Pulmonary CFU assay in mice infected intranasally with Mabc-R; type: in vivo, mouse; conditions: WT mice, intranasal Mabc-R 1×10^7 CFU, 30 mg/kg at 1, 3, 5, 7 and 9 dpi, sacrificed at 10 dpi (FIG. 5B)
[7] = test system: TNF; assay: TNF secretion in lung tissues of Mabc-R-infected mice (ELISA); type: in vivo, mouse; conditions: Mabc-R-infected mice treated with MIT-001
Description: The concentration of TNF in lung tissues was measured using a commercially available ELISA kit (BD Biosciences, 558534, San Jose, CA, USA). Experiments were performed according to the protocol provided by the manufacturer.
We next examined the in vivo effects of MIT-001 on pathological inflammatory responses during Mabc-R infection.

[8] = test system: inflammatory cytokines/chemokines (Tnf, Il1b, Il6, Cxcl2, Cxcl5); assay: qRT-PCR analysis for cytokines/chemokines in lung tissues of Mabc-R-infected mice; type: in vivo, mouse; conditions: WT mice, intranasal Mabc-R 1×10^7 CFU, 30 mg/kg, 10 dpi (FIG. 5C)
Description: as §4, §5

Row | SMILES | mRNA expression of proinflammatory cytokines (Tnf, Il6, Cxcl2) after infection with Mabc-R ([1]; SIRT3 KO BMDMs) | mRNA expression of Tnf, Il6, and Cxcl2 in response to Mabc-R ([1]; SIRT3 WT BMDMs) | mRNA expression of proinflammatory cytokines (Tnf, Il6, Cxcl2) after infection with Mabc-R ([2]; SIRT3 KO PMs) | mRNA expression of Tnf, Il6, and Cxcl2 in response to Mabc-R ([2]; SIRT3 WT PMs) | generation of mitochondrial ROS in response to Mabc-R infection [3] | Sirt3 mRNA levels in mouse lungs [4] | damaged mitochondria with disrupted cristae in alveolar cells of lung tissues [5] | in vivo bacterial loads in the lungs (pulmonary CFU) [6] | TNF secretion in lung tissues [7] | mRNA expression of inflammatory cytokines/chemokines including Tnf, Il1b, Il6, Cxcl2 and Cxcl5 in lung tissues [8]
1 | c1cncc(-c2cn[nH]n2)c1 [3-TYP] | no significant effect | significantly increased | no significant effect | significantly increased | – | – | – | – | – | –
2 | O=S1(=O)CCN(Cc2cc(NC3CCOCC3)c3[nH]c(-c4ccccc4)cc3c2)CC1 [MIT-001, 5-[(1,1-dioxido-4-thiomorpholinyl)methyl]-2-phenyl-N-(tetrahydro-2H-pyran-4-yl)-1H-indol-7-amine] | – | – | – | – | remarkably suppressed | significantly recovered | considerably fewer damaged mitochondria | significantly inhibited | significantly downregulated | remarkably ameliorated
